{
  "source": "patent US5665769A",
  "about": "“Pharmaceutical composition for preventing and treating retinal diseases” (Senju Pharmaceuticals Co., Ltd., priority 1993, dated 1997)",
  "key": {"[1]": {"system": "bovine retinal homogenate", "assay": "Ferrous chloride-induced peroxidation of bovine retinal homogenate in vitro, TBA value (Experiment 1 (A))", "type": "biochemical", "settings": "10^-4 M", "method": "(A) In vitro experiment using a bovine retinal homogenate:\nEffects of 2-O-octadecylascorbic acid on the peroxidation induced by adding ferrous chloride to a bovine retinal homogenate were examined.\n(1) Retinae were removed from bovine eyeballs (1/2 eye). Physiological saline was added to the retinae to prepare bovine retinal homogenates.\n(2) Ferrous chloride (0.5 mM, dissolved in distilled water) was added to each of the retinal homogenates obtained in the above. Further, 2-O-octadecylascorbic acid and α-tocopherol were added to the resulting homogenates to final concentrations of the reaction mixtures of 10^-4 M, respectively. Further, distilled water was added to each of the homogenates to adjust a total volume to 1 ml. 2-O-octadecylascorbic acid and α-tocopherol were dissolved and diluted with ethanol. Thus, the final concentrations of ethanol in all of the reaction mixtures were adjusted to 1%. Then, the mixtures were subjected to reaction at 37° C. for 1 hour.\n(3) 0.35% thiobarbituric acid (hereinafter referred to as TBA) reagent (50% aqueous acetic acid solution)(1 ml) was added to the reaction mixtures or standard solutions of the retinal homogenates obtained in the above (2). The mixtures were subjected to reaction in boiling water at 100° C. for 1 hour. After water cooling, n-butanol (2 ml) was added, and the mixtures were shaken for 5 minutes and centrifuged at 3000 rpm for 10 minutes. Fluorescence intensities (excitation wave length: 515 nm, emission wave length: 553 nm) were determined for the n-butanol layer. Proteins were determined using Bio-Rad Protein Assay Kit (trade name)."}, "retina (rat) [2]": {"system": "retina (rat)", "assay": "Retinal peroxidation induced by intravitreous injection of ferrous sulfate in rats, retinal TBA values (Experiment 1 (B-1))", "type": "in vivo, SD rats", "settings": "1.5% suspension, 30 mg/kg oral", "method": "(B) In vivo experiment in rats by intravitreous injection of ferrous ion:\n(B-1) Evaluation by retinal TBA values\nAntioxidative effects of oral administration of a suspension of 2-O-octadecylascorbic acid (30 mg/kg) on the retinal peroxidation induced by intravitreous injection of ferrous sulfate in rats were examined.\nSeven weeks old SD rats fasted from the previous day were divided into 2 groups. A 5% solution of gum arabic (control)(2 ml/kg) was administered orally to one group in 3 divided portions. A 1.5% suspension (2 ml/kg) of 2-O-octadecylascorbic acid (30 mg/kg) was administered orally to the other group in 3 divided portions. Two hours after the first administration, rats were anesthetized systemically with ketamine hydrochloride. A 5 mM solution (5 μl) of ferrous sulfate was injected intravitreously into each of the left eyes, and physiological saline (5 μl) was injected intravitreously into each of the right eyes. Each injection was carried out using a microsyringe. One and four hours after the injection, a suspension of 2-O-octadecylascorbic acid or a 5% solution of gum arabic were administered again. Two hours after the third administration (i.e. six hours after the injection of ferrous ion), the rats were sacrificed. The eyeballs were removed, retinal homogenates were prepared from the eyes, and the TBA values and protein were determined."}, "[3]": {"system": "bovine retinal homogenates", "assay": "Peroxidation of bovine retinal homogenate by light exposure in presence of hematoporphyrin, TBA value (Experiment 2 (A))", "type": "biochemical", "settings": "10^-4 M", "method": "(A) In vitro experiment using bovine retinal homogenates\nAntioxidative effects of 2-O-octadecylascorbic acid on peroxidation caused by light exposure of bovine retinal homogenates in the presence of hematoporphyrin (hereinafter referred to as HPP) were examined.\n(1) HPP (100 μM, dissolved in ethanol), 2-O-octadecylascorbic acid (10^-4 M) and water were added to a retinal homogenate prepared by the same manner as that of the above Experiment 1 (A) Method (1). The mixture was irradiated with a fluorescent lamp (daylight lamp, 15 W, 3000 lux) from 20 cm above for 1 hour. The final concentration of ethanol in the reaction mixture was adjusted to 2%.\n(2) One hour after the light exposure, according to the same manner as that of the above Experiment 1 (A) Method (3), lipidperoxides were determined by the TBA reaction and proteins were determined using Bio-Rad Protein Assay Kit (trade name)."}, "retina (rat) [4]": {"system": "retina (rat)", "assay": "Retinal light damage in rats, histopathology and retinal thickness (Experiment 2 (B-1))", "type": "in vivo", "parameters": "key to Vacuolation of retinal pigment epithelium / Disarrangement or vacuolation of inner and outer segments of visual cells / Infiltration of macrophage / Pyknosis and nuclear disappearance in outer nuclear layer / Thinning of retinal entire layer: -: not observable; ±: slightly observable; +: observable; ++: remarkably observable", "settings": "for Vacuolation of retinal pigment epithelium / Disarrangement or vacuolation of inner and outer segments of visual cells / Infiltration of macrophage / Pyknosis and nuclear disappearance in outer nuclear layer / Thinning of retinal entire layer: one line per animal", "method": "(B) In vivo experiment by light exposure in rats\n(B-1) Evaluation by retinal pathological tissues and rhodopsin amount\nRats were subjected to dark adaptation for 72 hours. Then the rats were irradiated continuously for 12 hours using a green fluorescent lamp (10 W, 490-580 nm), the illumination intensity of which was adjusted to 2000 to 2400 lux. A suspension of 1.5% or 5.0% 2-O-octadecylascorbic acid was orally administered three times a day (90, 300 mg/kg/day) on the day of light exposure, and once a day (30, 100 mg/kg/day) after that. To the control group was administered 5.0% gum arabic solution (control) according to the same schedule. After completion of the light exposure, the rats were reared in a dark room and sacrificed on the 5th day. The right eyes were marked with ink in the upper part and fixed with 2% paraformaldehyde and 2% glutaraldehyde solutions. Histopathological evaluation was made using a light microscope and the thickness of retinae (thickness of retinal entire layer and outer nuclear layer) was measured. The left eyes were stored under freezing conditions at -20° C. for rhodopsin determination after removal of the cornea, lens and vitreous body."}, "[5]": {"settings": "1.5% suspension, mean ± S.D., n=5"}, "[6]": {"settings": "1.5% suspension, Nos. 1-5 in order"}, "[7]": {"settings": "5.0% suspension, mean ± S.D., n=3"}, "[8]": {"settings": "5.0% suspension, Nos. 1-3 in order"}},
  "note": "“And” between values parts separate entries of the source, which are not always exact repeats. Identical values can stand only once.",
  "data": [
    {"smiles": "CCCCCCCCCCCCCCCCCCOC1=C(O)[C@@H]([C@@H](O)CO)OC1=O", "note": "[2-O-octadecylascorbic acid]", "values": [
      {"measurement": "inhibitory effect on the peroxidation of the retinal homogenate", "setting": "[1]; compared with α-tocopherol", "result": "more excellent inhibitory effect on the peroxidation of the retinal homogenate than that in the presence of α-tocopherol"},
      {"measurement": "Retina: TBA value", "setting": "[1]; 0.5 mM ferrous chloride, 37° C., 1 hour, mean ± S.D., n=3, p < 0.001 vs control", "result": "0.61 ± 0.04 nM malondialdehyde/mg protein"},
      {"measurement": "Inhibitory ratio", "setting": "[1]; ferrous chloride control = 0, blank = 100, 60 min", "result": 94.9, "unit": "%"},
      {"measurement": "increase in the TBA value of the retina induced by intravitreous injection of ferrous ion", "setting": "retina (rat) [2]", "result": "significantly inhibited the increase in the TBA value of the retina"},
      {"measurement": "Retina: TBA value, left eye", "setting": "retina (rat) [2]; left eye (ferrous sulfate injected), mean ± S.D., n=6, p < 0.01 vs control", "result": "0.47 ± 0.11 nM malondialdehyde/mg protein"},
      {"measurement": "Retina: TBA value, right eye", "setting": "retina (rat) [2]; right eye (physiological saline injected), mean ± S.D., n=6", "result": "0.36 ± 0.06 nM malondialdehyde/mg protein"},
      {"measurement": "inhibitory effect on light-induced peroxidation", "setting": "[3]", "result": "significant inhibitory effect was observed"},
      {"measurement": "Retina: TBA value", "setting": "[3]; HPP 100 μM, light 3000 lux 1 hour, mean ± S.D., n=3, p < 0.001 vs control", "result": "1.31 ± 0.21 nM malondialdehyde/mg protein"},
      {"measurement": "examples (animals) with remarkably observed retinal lesions", "setting": "retina (rat) [4]; 1.5% suspension", "result": "four of five examples"},
      {"measurement": "Vacuolation of retinal pigment epithelium", "setting": "retina (rat) [4]; 1.5% suspension (90 mg/kg/day oral on day of exposure, then 30), Nos. 1-5 in order", "result": "+"},
      {"measurement": "Thickness of outer nuclear layer, lesion", "setting": "retina (rat) [4]; [5]", "result": "16.0 ± 7.2", "unit": "µM"},
      {"measurement": "Thickness of outer nuclear layer, near optic disk", "setting": "retina (rat) [4]; [5]", "result": "39.0 ± 8.8", "unit": "µM"},
      {"measurement": "Thickness of retinal entire layer, lesion", "setting": "retina (rat) [4]; [5]", "result": "88.5 ± 22.3", "unit": "µM"},
      {"measurement": "Thickness of retinal entire layer, near optic disk", "setting": "retina (rat) [4]; [5]", "result": "135.5 ± 27.9", "unit": "µM"},
      {"measurement": "Disarrangement or vacuolation of inner and outer segments of visual cells", "setting": "retina (rat) [4]; [6]", "result": "++ (4×) and +"},
      {"measurement": "Infiltration of macrophage", "setting": "retina (rat) [4]; [6]", "result": "++ (4×) and -"},
      {"measurement": "Pyknosis and nuclear disappearance in outer nuclear layer", "setting": "retina (rat) [4]; [6]", "result": "++ (4×) and ±"},
      {"measurement": "Thinning of retinal entire layer", "setting": "retina (rat) [4]; [6]", "result": "++ (4×) and -"},
      {"measurement": "examples (animals) with remarkably observed retinal lesions", "setting": "retina (rat) [4]; 5.0% suspension", "result": "one of three examples"},
      {"measurement": "Vacuolation of retinal pigment epithelium", "setting": "retina (rat) [4]; 5.0% suspension (300 mg/kg/day oral on day of exposure, then 100), Nos. 1-3 in order", "result": "- and + (2×)"},
      {"measurement": "thickness of the retinal entire layer near optic disk (in words)", "setting": "retina (rat) [4]; 5.0% suspension, compared with control", "result": "significantly larger than that in the control group"},
      {"measurement": "severity of lesions", "setting": "retina (rat) [4]; 5.0% suspension, compared with control group", "result": "not so severe as those of the control group"},
      {"measurement": "Thickness of outer nuclear layer, lesion", "setting": "retina (rat) [4]; [7]", "result": "19.2 ± 11.3", "unit": "µM"},
      {"measurement": "Thickness of outer nuclear layer, near optic disk", "setting": "retina (rat) [4]; [7]", "result": "48.3 ± 1.4", "unit": "µM"},
      {"measurement": "Thickness of retinal entire layer, lesion", "setting": "retina (rat) [4]; [7]", "result": "84.2 ± 16.3", "unit": "µM"},
      {"measurement": "Disarrangement or vacuolation of inner and outer segments of visual cells", "setting": "retina (rat) [4]; [8]", "result": "± and + and ++"},
      {"measurement": "Infiltration of macrophage", "setting": "retina (rat) [4]; [8]", "result": "- (2×) and ++"},
      {"measurement": "Pyknosis and nuclear disappearance in outer nuclear layer", "setting": "retina (rat) [4]; [8]", "result": "± and + and ++"},
      {"measurement": "Thinning of retinal entire layer", "setting": "retina (rat) [4]; [8]", "result": "- and + and ++"},
      {"measurement": "thickness of the outer nuclear layer near optic disk (in words)", "setting": "retina (rat) [4]; suspension administered groups, compared with control", "result": "tends to be larger than that in the control group"}
    ]}
  ]
}
